Reference: patent US8404643B2, “Metastin derivatives and use thereof” (priority 2005, dated 2013)
Square brackets hold non-standard residues; d marks the D form. Peptide text beside a SMILES is read from it. * marks the point of attachment. Phe(4-Cl) = N[C@@H](Cc1ccc(Cl)cc1)C(=O)O; Phe(4-F) = N[C@@H](Cc1ccc(F)cc1)C(=O)O; Desaminotyrosyl = O=C(CCc1ccc(O)cc1)*; Phe(2-F) = N[C@@H](Cc1ccccc1F)C(=O)O; Arg(Me) = CNC(=N)NCCC[C@H](N)C(=O)O; Dap(CONH2) = NC(=O)NC[C@H](N)C(=O)O; His(π-Me) = Cn1cncc1C[C@H](N)C(=O)O; Ala(cPr) = N[C@@H](CC1CC1)C(=O)O; Hyp = O=C(O)[C@@H]1C[C@@H](O)CN1; Cit = NC(=O)NCCC[C@H](N)C(=O)O; Decanoyl = CCCCCCCCCC(=O)*; Thz = O=C(O)[C@@H]1CSCN1; azaGly = NNC(=O)O; NHcPr = C1CC1N*

Target: T1, hOT7T175 (Homo sapiens, UniProt Q969F8)
T1 construct: expressed in transfected cells
Assay: Assay for intracellular Ca ion level-increasing activity using FLIPR
Format: cell-based
Conditions: hOT7T175/CHO cells, relative to Metastin (1-54)
In short: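 CHO/dhfr− cells stably transfected with hOT7T175, selected for high metastin response, loaded with Fluo3-AM for 1 h at 37 °C in HANKS/HBSS (pH 7.4) with probenecid. Peptides were diluted from 1×10^−3 M DMSO stock into HANKS/HBSS with 2.5 mM probenecid, 0.2% BSA, 0.1% CHAPS; intracellular Ca rise read by FLIPR.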

T1 sequence (Q969F8 whole entry L364H): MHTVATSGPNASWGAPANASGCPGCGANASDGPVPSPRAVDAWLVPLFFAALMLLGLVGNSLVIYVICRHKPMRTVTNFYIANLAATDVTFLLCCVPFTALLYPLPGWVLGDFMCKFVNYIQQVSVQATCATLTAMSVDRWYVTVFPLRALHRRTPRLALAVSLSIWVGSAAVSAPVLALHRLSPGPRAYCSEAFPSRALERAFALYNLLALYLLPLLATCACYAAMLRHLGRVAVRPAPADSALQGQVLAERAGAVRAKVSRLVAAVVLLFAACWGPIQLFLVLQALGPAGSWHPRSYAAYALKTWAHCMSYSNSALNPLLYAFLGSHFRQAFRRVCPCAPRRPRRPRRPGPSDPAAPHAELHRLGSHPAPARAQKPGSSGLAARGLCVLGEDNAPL

Row | SMILES | Specific Activity: intracellular Ca ion level-increasing activity [specific activity to Metastin (1-54)]
1 | CNC(=N)NCCC[C@H](NC(=O)[C@H](CC(C)C)NC(=O)NNC(=O)[C@H](Cc1ccccc1)NC(=O)[C@@H](NC(=O)[C@H](CC(N)=O)NC(=O)[C@H](Cc1cncn1C)NC(=O)[C@@H](Cc1ccc(O)cc1)NC(C)=O)[C@@H](C)O)C(=O)N[C@@H](Cc1c[nH]c2ccccc12)C(N)=O [Compound No. 773, Ac-D-Tyr-His(3Me)-Asn-Thr-Phe-AzaGly-Leu-Arg(Me)-Trp-NH2] (Ac-[dY][His(π-Me)]NTF[azaGly]L[Arg(Me)]W-NH2) | 1.1
2 | CNC(=N)NCCC[C@H](NC(=O)[C@H](CC(C)C)NC(=O)NNC(=O)[C@H](Cc1ccccc1)NC(=O)[C@@H](NC(=O)[C@H](CC(=O)NC1CC1)NC(=O)[C@@H](Cc1c[nH]c2ccccc12)NC(=O)[C@@H](Cc1ccc(O)cc1)NC(C)=O)[C@@H](C)O)C(=O)N[C@@H](Cc1c[nH]c2ccccc12)C(N)=O [Compound No. 715, Ac-D-Tyr-D-Trp-Asp(NHcPr)-Thr-Phe-AzaGly-Leu-Arg(Me)-Trp-NH2] (Ac-[dY][dW]D(NHcPr)TF[azaGly]L[Arg(Me)]W-NH2) | 1.6
3 | CNC(=N)NCCC[C@H](NC(=O)[C@H](CC(C)C)NC(=O)NNC(=O)[C@H](Cc1ccccc1F)NC(=O)[C@@H](NC(=O)[C@H](CC(N)=O)NC(=O)[C@H](CCCCN)NC(=O)[C@@H](Cc1ccc(O)cc1)NC(C)=O)[C@@H](C)O)C(=O)N[C@@H](Cc1c[nH]c2ccccc12)C(N)=O [Compound No. 754, Ac-D-Tyr-Lys-Asn-Thr-Phe(2F)-AzaGly-Leu-Arg(Me)-Trp-NH2] (Ac-[dY]KNT[Phe(2-F)][azaGly]L[Arg(Me)]W-NH2) | 3.1
4 | CCCCCCCCCC(=O)N[C@@H](CC(N)=O)C(=O)N[C@H](C(=O)N[C@@H](Cc1ccccc1)C(=O)NNC(=O)N[C@@H](CC(C)C)C(=O)N[C@@H](CCCNC(=N)NC)C(=O)N[C@@H](Cc1c[nH]c2ccccc12)C(N)=O)[C@@H](C)O [Compound No. 710, Decanoyl-Asn-Thr-Phe-AzaGly-Leu-Arg(Me)-Trp-NH2] (Decanoyl-NTF[azaGly]L[Arg(Me)]W-NH2) | 7.2
5 | CNC(=N)NCCC[C@H](NC(=O)[C@H](CC(C)C)NC(=O)NNC(=O)[C@H](Cc1ccccc1)NC(=O)c1ccc(NC(N)=O)cc1)C(=O)N[C@@H](Cc1c[nH]c2ccccc12)C(N)=O [Compound No. 860, 4-Ureidobenzoyl-Phe-AzaGly-Leu-Arg(Me)-Trp-NH2] | 1.3
6 | CNC(=N)NCCC[C@H](NC(=O)[C@H](CC(C)C)NC(=O)NNC(=O)[C@H](Cc1ccccc1)NC(=O)c1ccc(CN(Cc2ccccn2)Cc2ccccn2)cc1)C(=O)N[C@@H](Cc1c[nH]c2ccccc12)C(N)=O [Compound No. 801, 4-[Bis-(2-Pyridylmethyl)aminomethyl]benzoyl-Phe-AzaGly-Leu-Arg(Me)-Trp-NH2] | 11.1
7 | CNC(=N)NCCC[C@H](NC(=O)[C@H](CC(C)C)NC(=O)NNC(=O)[C@H](Cc1ccccc1)NC(=O)[C@@H](NC(=O)[C@H](CC(N)=O)NC(=O)[C@H](CO)NC(=O)[C@@H](Cc1ccc(O)cc1)NC(C)=O)[C@@H](C)O)C(=O)N[C@@H](Cc1c[nH]c2ccccc12)C(N)=O [Compound No. 744, Ac-D-Tyr-Ser-Asn-Thr-Phe-AzaGly-Leu-Arg(Me)-Trp-NH2] (Ac-[dY]SNTF[azaGly]L[Arg(Me)]W-NH2) | 2.4
8 | CNC(=N)NCCC[C@H](NC(=O)[C@H](CC(C)C)NC(=O)NNC(=O)[C@H](Cc1ccccc1)NC(=O)[C@@H](NC(=O)[C@H](CNC(N)=O)NC(=O)[C@@H](Cc1c[nH]c2ccccc12)NC(=O)[C@@H](Cc1ccc(O)cc1)NC(C)=O)[C@@H](C)O)C(=O)N[C@@H](Cc1c[nH]c2ccccc12)C(N)=O [Compound No. 717, Ac-D-Tyr-D-Trp-Alb-Thr-Phe-AzaGly-Leu-Arg(Me)-Trp-NH2] (Ac-[dY][dW][Dap(CONH2)]TF[azaGly]L[Arg(Me)]W-NH2) | 1.0

Other lines, results leading:

Row | Specific Activity: intracellular Ca ion level-increasing activity [specific activity to Metastin (1-54)] | SMILES
9 | 3.4 | CNC(=N)NCCC[C@H](NC(=O)[C@H](CC(C)C)NC(=O)NNC(=O)[C@H](Cc1ccc(F)cc1)NC(=O)[C@@H](NC(=O)[C@H](CC(N)=O)NC(=O)[C@H](CCCCN)NC(=O)[C@@H](Cc1ccc(O)cc1)NC(C)=O)[C@@H](C)O)C(=O)N[C@@H](Cc1c[nH]c2ccccc12)C(N)=O [Compound No. 789, Ac-D-Tyr-Lys-Asn-Thr-Phe(4F)-AzaGly-Leu-Arg(Me)-Trp-NH2] (Ac-[dY]KNT[Phe(4-F)][azaGly]L[Arg(Me)]W-NH2)
10 | 1.4 | CNC(=N)NCCC[C@H](NC(=O)[C@H](CC(C)C)NC(=O)NNC(=O)[C@H](Cc1ccccc1)NC(=O)[C@@H](NC(=O)[C@H](CC(N)=O)NC(=O)[C@@H]1CSCN1C(=O)[C@@H](Cc1ccc(O)cc1)NC(C)=O)[C@@H](C)O)C(=O)N[C@@H](Cc1c[nH]c2ccccc12)C(N)=O [Compound No. 724, Ac-D-Tyr-Thz-Asn-Thr-Phe-AzaGly-Leu-Arg(Me)-Trp-NH2] (Ac-[dY][Thz]NTF[azaGly]L[Arg(Me)]W-NH2)
11 | 0.6 | CNC(=N)NCCC[C@H](NC(=O)[C@H](CC1CC1)NC(=O)NNC(=O)[C@H](Cc1ccccc1)NC(=O)[C@@H](NC(=O)[C@H](CC(N)=O)NC(=O)[C@@H]1C[C@@H](O)CN1C(=O)[C@@H](Cc1ccc(O)cc1)NC(C)=O)[C@@H](C)O)C(=O)N[C@@H](Cc1c[nH]c2ccccc12)C(N)=O [Compound No. 856, Ac-D-Tyr-Hyp-Asn-Thr-Phe-AzaGly-Ala(cPr)-Arg(Me)-Trp-NH2] (Ac-[dY][Hyp]NTF[azaGly][Ala(cPr)][Arg(Me)]W-NH2)
12 | 1.1 | CNC(=N)NCCC[C@H](NC(=O)[C@H](CC(C)C)NC(=O)NNC(=O)[C@H](Cc1ccccc1)NC(=O)[C@@H](NC(=O)[C@H](CC(N)=O)NC(=O)[C@@H]1C[C@@H](O)CN1C(=O)CCc1ccc(O)cc1)[C@@H](C)O)C(=O)N[C@@H](Cc1c[nH]c2ccccc12)C(N)=O [Compound No. 888, 3-(p-Hydroxyphenyl)propionyl-Hyp-Asn-Thr-Phe-AzaGly-Leu-Arg(Me)-Trp-NH2] (Desaminotyrosyl-[Hyp]NTF[azaGly]L[Arg(Me)]W-NH2)
13 | 1.0 | CNC(=N)NCCC[C@H](NC(=O)[C@H](CC(C)C)NC(=O)NNC(=O)[C@H](Cc1ccccc1)NC(=O)[C@@H](NC(=O)[C@H](CCCNC(N)=O)NC(=O)[C@@H]1C[C@@H](O)CN1C(=O)[C@@H](Cc1ccc(O)cc1)NC(C)=O)[C@@H](C)O)C(=O)N[C@@H](Cc1c[nH]c2ccccc12)C(N)=O [Compound No. 845, Ac-D-Tyr-Hyp-Cit-Thr-Phe-AzaGly-Leu-Arg(Me)-Trp-NH2] (Ac-[dY][Hyp][Cit]TF[azaGly]L[Arg(Me)]W-NH2)
14 | 1.5 | CNC(=N)NCCC[C@H](NC(=O)[C@H](CC(C)C)NC(=O)NNC(=O)[C@H](Cc1ccc(Cl)cc1)NC(=O)[C@@H](NC(=O)[C@H](CC(N)=O)NC(=O)[C@@H]1C[C@@H](O)CN1C(=O)[C@@H](Cc1ccc(O)cc1)NC(C)=O)[C@@H](C)O)C(=O)N[C@@H](Cc1c[nH]c2ccccc12)C(N)=O [Compound No. 767, Ac-D-Tyr-Hyp-Asn-Thr-Phe(4Cl)-AzaGly-Leu-Arg(Me)-Trp-NH2] (Ac-[dY][Hyp]NT[Phe(4-Cl)][azaGly]L[Arg(Me)]W-NH2)
